Experimental data published in patent publication US8124778B2, “Tricyclic inhibitors of fatty acid amide hydrolase” (The Scripps Research Institute, priority 2007, dated 2012).

How the values were obtained:
[1] = biological target: T1, triacylglycerol hydrolase (TGH) (Mus musculus, UniProt Q8VCT4); assay: Proteome-wide selectivity screening, TGH; assay type: biochemical; conditions: IC50 based
T1 construct: from tissue
T1 sequence (Q8VCT4 19-565): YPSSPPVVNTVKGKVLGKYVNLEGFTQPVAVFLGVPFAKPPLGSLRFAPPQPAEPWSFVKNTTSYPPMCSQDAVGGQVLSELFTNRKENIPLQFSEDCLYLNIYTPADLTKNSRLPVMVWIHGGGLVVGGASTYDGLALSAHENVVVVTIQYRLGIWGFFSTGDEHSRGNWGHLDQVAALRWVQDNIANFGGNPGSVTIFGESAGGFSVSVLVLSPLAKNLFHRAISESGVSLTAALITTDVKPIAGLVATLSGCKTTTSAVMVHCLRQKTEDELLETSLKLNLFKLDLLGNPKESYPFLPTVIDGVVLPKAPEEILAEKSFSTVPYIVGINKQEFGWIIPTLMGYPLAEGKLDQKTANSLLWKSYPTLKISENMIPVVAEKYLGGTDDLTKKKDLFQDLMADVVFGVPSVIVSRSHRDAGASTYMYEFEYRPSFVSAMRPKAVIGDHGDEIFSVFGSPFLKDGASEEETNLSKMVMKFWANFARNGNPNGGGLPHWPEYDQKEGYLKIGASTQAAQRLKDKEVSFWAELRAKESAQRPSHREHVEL
Text: (§1) The present invention concerns the synthesis and evaluation of a systematic series of α-keto oxazole inhibitors having variations at the C2 acyl side chain along with results of the proteome-wide selectivity screening of the candidate inhibitors. The screening protocol is described by Leung, D.; Hardouin, C.; et al. Nature Biotech. 2003, 21, 687-691.
(§2) Selectivity Screening. […] Consequently a method for proteomic-wide screening capable of globally profiling all mammalian serine hydrolases was developed (Leung, D.; Hardouin, C.; et al. Nature Biotech. 2003, 21, 687-691) and studies have shown that the α-ketoheterocycle class of inhibitors generally are exquisitely selective for FAAH (Boger, D. L.; Miyauchi, H.; et al. J. Med. Chem. 2005, 48, 1849-1856; Leung, D.; Du, W.; et al. Bioorg. Med. Chem. Lett. 2005, 15, 1423-1428; Lichtman, A. H.; Leung, D.; et al. J. Pharmacol. Exp. Ther. 2004, 311, 441-448). However, two enzymes did emerge as potential competitive targets: triacylglycerol hydrolase (TGH) and an uncharacterized membrane-associated hydrolase that lacks known substrates or function (KIAA1363). In this screen, IC50 values are typically higher than the measured Ki values, but the relative potency, the magnitude of binding affinity differences and the rank order binding determined in the assay parallels that established by standard substrate assays. […]

[2] = biological target: T2, KIAA1363 (Mus musculus, UniProt Q8BLF1); assay: Proteome-wide selectivity screening, KIAA1363; assay type: biochemical; conditions: IC50 based
T2 construct: from tissue
T2 sequence (Q8BLF1 1-408): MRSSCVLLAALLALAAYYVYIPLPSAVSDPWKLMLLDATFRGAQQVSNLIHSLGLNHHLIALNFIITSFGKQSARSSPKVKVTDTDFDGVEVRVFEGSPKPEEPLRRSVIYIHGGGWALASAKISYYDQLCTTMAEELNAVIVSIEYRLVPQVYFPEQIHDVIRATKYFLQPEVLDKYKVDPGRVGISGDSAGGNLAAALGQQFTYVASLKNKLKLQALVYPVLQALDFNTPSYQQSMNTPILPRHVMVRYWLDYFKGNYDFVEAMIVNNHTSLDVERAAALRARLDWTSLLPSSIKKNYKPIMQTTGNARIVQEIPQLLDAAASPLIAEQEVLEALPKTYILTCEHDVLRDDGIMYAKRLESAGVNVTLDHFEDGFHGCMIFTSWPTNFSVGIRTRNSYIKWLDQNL
Text: as §1, §2

Q: With `O=C(CCCCCCc1ccccn1)c1ncc(-c2ccccn2)o1` [5e, 1-Oxo-1-[5-(2-pyridyl)oxazol-2-yl]-7-(2-pyridyl)heptane] as the molecule, how does the “selectivity for FAAH over TGH (in words)” value [1] read?
A: The value was “moderately selective”.

Q: What about the “selectivity for FAAH over KIAA1363 (in words)” value [2] of the same molecule?
A: The value was “very selective”.

Q: Which results are given for `O=C(CCCCCCc1cccnc1)c1ncc(-c2ccccn2)o1` [5f, 1-Oxo-1-[5-(2-pyridyl)oxazol-2-yl]-7-(3-pyridyl)heptane]?
A: selectivity for FAAH over TGH (in words) [1]: moderately selective; selectivity for FAAH over KIAA1363 (in words) [2]: very selective
